Test system: subcutaneous A549 lung tumor xenograft
Assay: antitumor efficacy in subcutaneous A549 lung tumor xenograft (caliper)
Type: in vivo, mice
Conditions: equivalent DOX dose 4 mg/kg i.v. at day 0, 2, 5 and 10
Protocol: In a separate study, we have systematically investigated the antitumor efficacy of cRGD-encoded micelles in a subcutaneous A549 lung tumor xenograft study. Tumor size was measured by a caliper and normalized to that at day 0 before treatment. In this study, animals were treated with an equivalent DOX dose at 4 mg/kg for free drug, 0 and 16% cRGD-DOX-SPIO micelles, and coadministration of 16% cRGD-DOX-SPIO micelles with free cRGD peptides ([…]). Free drug or drug-encapsulated micelles were injected i.v. (bolus) into the tail vein at day 0, 2, 5 and 10. The control group was injected with phosphate buffer saline (PBS). Three animals were used for each sample group.

## COc1cccc2c1C(=O)c1c(O)c3c(c(O)c1C2=O)C[C@@](O)(C(=O)CO)C[C@@H]3O[C@H]1C[C@H](N)[C@H](O)[C@H](C)O1 [free DOX, doxorubicin]
  tumor size change: did not change dramatically

Reference: US20090196826A1, “COMPOSITIONS AND METHODS OF MAKING NON-SPHERICAL MICRO- AND NANO-PARTICLES” (BOARD OF REGENTS, THE UNIVERSITY OF TEXAS SYSTEM, priority 2007, published 2009)
